Laboratory results reported in PubChem BioAssay AID342 (DTP/NCI, 2004).
Where “and” joins values, the source holds several entries; their conditions need not be identical. Identical values can stand only once.

Test system: Swiss mice, Sarcoma 180 sc, mean tumor weight T/C
Test: NCI In Vivo Anticancer Drug Screen. Data for tumor model Sarcoma 180 (subcutaneous) in Swiss mice
Conditions: endpoint: mean tumor weight, higher = larger tumour
How it was run: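 T/C ratio: treated over vehicle-treated controls, measuring survival or tumor size in transplanted-tumor mice.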

[1] = dose: 25.0 mg/kg/injection, schedule: Q01DX007 (ip), vehicle: carboxymethylcellulose (CMC)
[2] = dose: 50.0 mg/kg/injection, schedule: Q01DX007 (ip), vehicle: carboxymethylcellulose (CMC)
[3] = dose: 75.0 mg/kg/injection, schedule: Q01DX007 (ip), vehicle: carboxymethylcellulose (CMC)
[4] = dose: 150.0 mg/kg/injection, schedule: Q01DX007 (ip), vehicle: carboxymethylcellulose (CMC)

With `C[C@@H]1C[C@](O)([C@@H](C)Cl)C(=O)O[C@@H]2CCN3CC=C(COC(=O)[C@]1(C)O)[C@H]23` the T/C (dose: 25.0 mg/kg/injection, schedule: Q01DX007 (ip), vehicle: saline) was 74 % of control.
With `Cc1cc(N=C2C=CC(=O)C=C2)c(C(C)C)cc1O` the T/C (dose: 200.0 mg/kg/injection, schedule: Q01DX007 (ip), vehicle: other) was 52 % of control, the T/C (dose: 300.0 mg/kg/injection, schedule: Q01DX007 (ip), vehicle: other) was 61 % of control and the T/C (dose: 450.0 mg/kg/injection, schedule: Q01DX007 (ip), vehicle: other) was 59 % of control. The T/C (dose: 600.0 mg/kg/injection, schedule: Q01DX007 (ip), vehicle: other) was 53 % of control.
For `COc1ccc2[nH]c3c(C)c4ccncc4c(C)c3c2c1`, the T/C (dose: 6.2 mg/kg/injection, schedule: Q01DX007 (ip), vehicle: carboxymethylcellulose (CMC)) was 81 % of control, the T/C (dose: 12.5 mg/kg/injection, schedule: Q01DX007 (ip), vehicle: carboxymethylcellulose (CMC)) was 77 % of control and the T/C [1] was 33 % of control. The T/C (dose: 27.0 mg/kg/injection, schedule: Q01DX007 (ip), vehicle: saline) was 72 % of control, the T/C (dose: 40.0 mg/kg/injection, schedule: Q01DX007 (ip), vehicle: saline) was 88 % of control and the T/C [2] was 27 % of control. For the same compound, the T/C (dose: 50.0 mg/kg/injection, schedule: Q01DX007 (ip), vehicle: steriod suspending solution) was 97 % of control, the T/C (dose: 60.0 mg/kg/injection, schedule: Q01DX007 (ip), vehicle: saline) was 50 % of control and the T/C [3] was 25 % of control. The T/C (dose: 75.0 mg/kg/injection, schedule: Q01DX007 (ip), vehicle: steriod suspending solution) was 46 % of control, the T/C (dose: 90.0 mg/kg/injection, schedule: Q01DX007 (ip), vehicle: saline) was 24 % of control and the T/C [4] was 19 % of control. For the same compound, the T/C (dose: 150.0 mg/kg/injection, schedule: Q01DX007 (ip), vehicle: steriod suspending solution) was 31 % of control.
With `CN(N=O)C(=O)Nc1c[nH]c(=O)[nH]c1=O` the T/C (dose: 25.0 mg/kg/injection, schedule: Q#A X014 (ip), vehicle: carboxymethylcellulose (CMC)) was 33 % of control.
With `O=S(=O)(OCCCl)OCCCl` the T/C (dose: 31.2 mg/kg/injection, schedule: Q01DX007 (ip), vehicle: other) was 54 % of control and the T/C (dose: 62.5 mg/kg/injection, schedule: Q01DX007 (ip), vehicle: other) was 66 % of control.
For `CC1C/C=C2\CSC(NC(=O)/C3=C\N(C/C=C/C=C/C(O)CC(O)CC(=O)N3)C2=O)C(=O)O1` (stereo not drawn), the T/C (dose: 18.75 mg/kg/injection, schedule: Q01DX007 (ip), vehicle: carboxymethylcellulose (CMC)) was 111 % of control, the T/C (dose: 37.5 mg/kg/injection, schedule: Q01DX007 (ip), vehicle: carboxymethylcellulose (CMC)) was 112 % of control and the T/C [4] was 114 % of control. The T/C (dose: 187.0 mg/kg/injection, schedule: Q01DX007 (ip), vehicle: carboxymethylcellulose (CMC)) was 68 % of control, the T/C (dose: 250.0 mg/kg/injection, schedule: Q01DX007 (ip), vehicle: carboxymethylcellulose (CMC)) was 119 % of control and the T/C (dose: 375.0 mg/kg/injection, schedule: Q01DX007 (ip), vehicle: carboxymethylcellulose (CMC)) was 91 % of control. For the same compound, the T/C (dose: 500.0 mg/kg/injection, schedule: Q01DX007 (ip), vehicle: carboxymethylcellulose (CMC)) was 73 % of control.
With `COC1C(O)CC(=O)OC(C)C/C=C/C=C/C(OC2CCC(N(C)C)C(C)O2)C(C)CC(CC=O)C1OC1OC(C)C(OC2CC(C)(O)C(O)C(C)O2)C(N(C)C)C1O` (stereo not drawn) the T/C (dose: 44.0 mg/kg/injection, schedule: Q01DX007 (ip), vehicle: water) was 124 % of control, the T/C (dose: 66.0 mg/kg/injection, schedule: Q01DX007 (ip), vehicle: water) was 85 % of control and the T/C (dose: 100.0 mg/kg/injection, schedule: Q01DX007 (ip), vehicle: water) was 123 % of control. The T/C (dose: 150.0 mg/kg/injection, schedule: Q01DX007 (ip), vehicle: water) was 95 % of control, the T/C (dose: 225.0 mg/kg/injection, schedule: Q01DX007 (ip), vehicle: water) was 110 % of control and the T/C (dose: 337.0 mg/kg/injection, schedule: Q01DX007 (ip), vehicle: water) was 72 % of control.
In the case of `[N-]=[N+]=C1N=CN=C1c1ncn[nH]1`, the T/C [1] is reported as 107 % of control and the T/C [2] is reported as 69 % of control.
`NN1CCCC1` was tested, and the T/C (dose: 33.0 mg/kg/injection, schedule: Q01DX007 (ip), vehicle: carboxymethylcellulose (CMC)) was 86 % of control, the T/C (dose: 33.0 mg/kg/injection, schedule: Q01DX007 (ip), vehicle: saline) was 161 % of control and the T/C [2] was 71 % of control. For the same compound, the T/C (dose: 50.0 mg/kg/injection, schedule: Q01DX007 (ip), vehicle: saline) was 179 % of control, the T/C [3] was 20 % of control and the T/C (dose: 75.0 mg/kg/injection, schedule: Q01DX007 (ip), vehicle: saline) was 86 % of control. The T/C (dose: 113.0 mg/kg/injection, schedule: Q01DX007 (ip), vehicle: saline) was 70 % of control, the T/C (dose: 133.0 mg/kg/injection, schedule: Q01DX007 (ip), vehicle: saline) was 55 % of control and the T/C (dose: 200.0 mg/kg/injection, schedule: Q01DX007 (ip), vehicle: saline) was 36 % of control.
With `CCc1nc(N)nc(N)c1-c1ccc(Cl)c(Cl)c1.O.O.[Zn]` the T/C (dose: 1.5 mg/kg/injection, schedule: Q01DX007 (ip), vehicle: carboxymethylcellulose (CMC)) was 62 % of control, the T/C (dose: 2.3 mg/kg/injection, schedule: Q01DX007 (ip), vehicle: carboxymethylcellulose (CMC)) was 65 % of control and the T/C (dose: 3.5 mg/kg/injection, schedule: Q01DX007 (ip), vehicle: carboxymethylcellulose (CMC)) was 46 % of control. The T/C (dose: 8.0 mg/kg/injection, schedule: Q01DX007 (ip), vehicle: carboxymethylcellulose (CMC)) was 39 % of control and the T/C (dose: 12.0 mg/kg/injection, schedule: Q01DX007 (ip), vehicle: carboxymethylcellulose (CMC)) was 18 % of control.
For `CCn1cnc2c(=S)nc[nH]c21`, the T/C [2] was 55 % of control and the T/C (dose: 100.0 mg/kg/injection, schedule: Q01DX007 (ip), vehicle: carboxymethylcellulose (CMC)) was 25 % of control.
With `COc1ccc(-c2ccc(OC)c(OC)c2OC)c(N)c1` the T/C (dose: 65.0 mg/kg/injection, schedule: Q01DX007 (ip), vehicle: methylcellulose (MC)) was 98 % of control, the T/C (dose: 125.0 mg/kg/injection, schedule: Q01DX007 (ip), vehicle: methylcellulose (MC)) was 97 % of control and the T/C (dose: 250.0 mg/kg/injection, schedule: Q01DX007 (ip), vehicle: methylcellulose (MC)) was 87 % of control. The T/C (dose: 500.0 mg/kg/injection, schedule: Q01DX007 (ip), vehicle: methylcellulose (MC)) was 63 % of control, the T/C (dose: 625.0 mg/kg/injection, schedule: Q01DX007 (ip), vehicle: methylcellulose (MC)) was 58 % of control and the T/C (dose: 750.0 mg/kg/injection, schedule: Q01DX007 (ip), vehicle: methylcellulose (MC)) was 86 % of control.
In the case of `CN(C)/C=N/c1nccs1`, the T/C (dose: 83.0 mg/kg/injection, schedule: Q01DX007 (ip), vehicle: saline) is reported as 58 % of control and 70 % of control and the T/C (dose: 125.0 mg/kg/injection, schedule: Q01DX007 (ip), vehicle: saline) is reported as 34 % of control and 43 % of control.
For `CC(=O)[C@@]1(O)CC[C@H]2[C@@H]3CCC4=CC(=O)CC[C@]4(C)[C@@]3(F)[C@@H](O)C[C@@]21C`, the T/C (dose: 12.0 mg/kg/injection, schedule: Q01DX007 (sc), vehicle: steriod suspending solution) was 67 % of control, the T/C (dose: 25.0 mg/kg/injection, schedule: Q01DX007 (sc), vehicle: steriod suspending solution) was 69 % of control and the T/C (dose: 55.0 mg/kg/injection, schedule: Q01DX007 (sc), vehicle: steriod suspending solution) was 40 % of control. For the same compound, the T/C (dose: 111.0 mg/kg/injection, schedule: Q01DX007 (sc), vehicle: steriod suspending solution) was 40 % of control and 42 % of control, the T/C (dose: 166.0 mg/kg/injection, schedule: Q01DX007 (sc), vehicle: steriod suspending solution) was 61 % of control and the T/C (dose: 250.0 mg/kg/injection, schedule: Q01DX007 (sc), vehicle: steriod suspending solution) was 58 % of control. The T/C (dose: 375.0 mg/kg/injection, schedule: Q01DX007 (sc), vehicle: steriod suspending solution) was 44 % of control.
With `C[C@]12CC[C@H](O)C[C@@H]1CC[C@@H]1[C@@H]2C(=O)C[C@]2(C)C3=CC(=O)O[C@H]3C[C@@H]12` the T/C (dose: 5.0 mg/kg/injection, schedule: Q01DX007 (sc), vehicle: steriod suspending solution) was 103 % of control, the T/C (dose: 10.0 mg/kg/injection, schedule: Q01DX007 (sc), vehicle: steriod suspending solution) was 97 % of control and the T/C (dose: 40.0 mg/kg/injection, schedule: Q01DX007 (sc), vehicle: steriod suspending solution) was 95 % of control.
`CCC1=C(c2cc(Cl)c3ccccc3c2OCC(=O)O)OC(CC)(C(=O)c2cc(Cl)c3ccccc3c2OCC(=O)O)CC1` (stereo not drawn) was tested, and the T/C (dose: 2.0 mg/kg/injection, schedule: Q01DX007 (ip), vehicle: other) was 110 % of control, the T/C (dose: 4.0 mg/kg/injection, schedule: Q01DX007 (ip), vehicle: other) was 120 % of control and the T/C (dose: 8.0 mg/kg/injection, schedule: Q01DX007 (ip), vehicle: other) was 90 % of control. The T/C (dose: 16.0 mg/kg/injection, schedule: Q01DX007 (ip), vehicle: other) was 112 % of control, the T/C (dose: 75.0 mg/kg/injection, schedule: Q01DX007 (ip), vehicle: other) was 95 % of control and the T/C (dose: 111.0 mg/kg/injection, schedule: Q01DX007 (ip), vehicle: other) was 49 % of control.
In the case of `CN1CC(=O)N=C1N`, the T/C (dose: 500.0 mg/kg/injection, schedule: Q#A X014 (ip), vehicle: water) is reported as 74 % of control and the T/C (dose: 1500.0 mg/kg/injection, schedule: Q#A X014 (ip), vehicle: water) is reported as 73 % of control.
